The values below are quoted from earlier work in patent US20260355183A1, “METHODS OF TREATING HEPATIC-ONLY METASTATIC UVEAL MELANOMA” (IDEAYA BIOSCIENCES, INC., priority 2023, published 2026).

Data set [1] concerns ocular melanoma liver metastases. Particulars: in vivo.
Data set [2] relates to uveal melanoma cells harboring GNAQ mutations. Particulars: by targeting PKC/ERK1/2 and PKC/NF-xB pathways; X. Wu et al., Mol. Cancer Ther. 11, 1905-1914, 2012.
The next data set relates to certain PKC isototypes. Particulars: background statement.

In the case of `N[C@@H](Cc1ccc(N(CCCl)CCCl)cc1)C(=O)O` [melphalan], in data set [1], the DCR is on record as 76.3%.

Turning to `CN1CCN(c2nc(C3=C(c4c[nH]c5ccccc45)C(=O)NC3=O)c3ccccc3n2)CC1` [sotrastaurin], in data set [2], the “inhibition of growth of uveal melanoma cells harboring GNAQ mutations” value is reported as “selectively inhibit the growth of uveal melanoma cells harboring GNAQ mutations”. For the same molecule, in the data set on certain PKC isototypes, the “activity against PKC isotypes” value was “activity against certain PKC isototypes”.
